One experiment deals with U251 pGL3. In words: Control luciferase reporter cell line (U251 pGL3). It counts as cell-based. The settings on record: normoxia. The text has this:
1) U251 HRE: The genetically engineered cells U251 HRE which stably express a recombinant vector in which the Luciferase reporter gene is under control of three copies of a canonical HRE. 2) U251 pGL3: A control cell line contains the firefly Luciferase reporter gene under control of the constitutively active SV40 promoter and enhancer that helps to exclude compounds that inhibit Luciferase expression in a nonspecific and/or HIF-1-independent fashion. These cells expressed high basal levels of Luciferase in normoxic conditions and slightly lower levels in hypoxic conditions.
U251 HRE cells were inoculated into 96 well white flat-bottomed plates at 10000-15000 cells/well in a volume of 180 μL and incubated for 24 h at 37° C., 5% CO2, and ambient O2. Compound A was tested at various concentrations viz. […] After 20 h incubation, the plates were removed and incubated at room temperature, 5% CO2, and ambient O2 for 1.5 h. 40 μL of Bright Glo Luciferase reagent (Promega™, USA) was added and after 3 min, luminescence was measured using a Polar Star Plate Reader (USA) in luminescence mode. Appropriate control cells (U251 pGL3) were treated identically, except that they were treated at 37° C., 5% CO2 and ambient O2. Compound toxicity was assayed using the MTS assay.
Background: In a reporter assay the amount or activity of a reporter protein is the signal.

The next experiment has as its system MDA-MB-231. In words: Cytotoxicity assay using propidium iodide (PI). It counts as cell-based, human. On the procedure: (§1) The propidium iodide fluorescence assay (PI) was carried out according to the procedure mentioned in Anticancer Drugs, 1995, 6, 522-32. The assay was developed to characterize the in vitro growth of human tumor cell lines as well as to test the cytotoxic activity of the compounds. Propidium iodide (PI) was used as a dye, which penetrates only damaged cellular membranes. Intercalation complexes are formed by PI with double-stranded DNA, which effect an amplification of the fluorescence. After freezing the cells at −20° C. for 24 h, PI had access to total DNA leading to total cell population counts. Background readings were obtained from cell-free wells containing media and propidium iodide. The human breast cancer cell lines (i.e. […] Control wells were treated with vehicle (DMSO). At the end of the incubation periods, the plates were assayed using PI cytotoxicity assay protocol. Percent cytoxicity was calculated at various drug concentrations and from the graph plotted the IC50 values were determined.

In another experiment the test system is MCF-7. In words: Cytotoxicity assay using propidium iodide (PI). It counts as cell-based, human. The procedure: as §1
The test system of a further experiment is MDA-MB-468. Nature of the experiment: Cytotoxicity assay using propidium iodide (PI). In kind it is cell-based, human. The procedure:
as §1

In another experiment the test system is Rb. Nature of the experiment: Western blot of cell cycle proteins in MCF-7. It counts as cell-based, human. The settings on record: 1.5 μM, 3, 6, 9, 12 and 24 h. The procedure:
(§2) MCF-7 cells were seeded in RPMI 1460 medium with 10% FCS in […] tissue culture flask and incubated for 24 h. These cells were treated with Compound A at 1.5 μM. At various time points viz. 3 h, 6 h, 9 h, 12 h and 24 h the cells were harvested (trypsinised) and lysed using lysis buffer. Protein content was estimated by Bradford method (Anal. Biochem., 1976, 72, 248-254). Lysate was applied to Sodium Dodecyl Sulphate-Polyacrylamide Gel Electrophoresis (SDS-PAGE) followed by Western blotting. Western blotting was done using specific antibodies to various cell cycle proteins viz. cyclin D1, CDK4, Rb and pRbSer780.
A general note: A western blot detects proteins with antibodies after separation by electrophoresis.

The next experiment concerns cyclin D1. In words: Western blot of cell cycle proteins in MCF-7. It counts as cell-based, human. The settings on record: 1.5 μM, 3, 6, 9, 12 and 24 h. The procedure:
as §2

The test system of a further experiment is pRbSer780. In words: Western blot of cell cycle proteins in MCF-7. The settings on record: 1.5 μM, 3, 6, 9, 12 and 24 h. In kind it is cell-based, human. On the procedure:
as §2

Experiment [1] deals with T1, CDK4-D1 (Cyclin D1 and CDK4) (Homo sapiens, UniProt P11802).
T1 construct: endogenous in cells; host or cells: MCF-7 (serum-starved, synchronized)
T1 sequence (P11802 2-303 limits assumed): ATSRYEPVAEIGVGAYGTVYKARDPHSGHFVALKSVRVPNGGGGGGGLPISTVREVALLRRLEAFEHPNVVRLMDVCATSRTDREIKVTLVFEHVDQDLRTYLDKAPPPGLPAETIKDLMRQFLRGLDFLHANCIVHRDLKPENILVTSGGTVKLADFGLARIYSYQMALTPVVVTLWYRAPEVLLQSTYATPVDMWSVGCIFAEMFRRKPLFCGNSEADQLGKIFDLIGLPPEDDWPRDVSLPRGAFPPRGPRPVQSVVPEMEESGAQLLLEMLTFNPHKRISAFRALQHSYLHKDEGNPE
T1 sequence (P24385 whole entry partner): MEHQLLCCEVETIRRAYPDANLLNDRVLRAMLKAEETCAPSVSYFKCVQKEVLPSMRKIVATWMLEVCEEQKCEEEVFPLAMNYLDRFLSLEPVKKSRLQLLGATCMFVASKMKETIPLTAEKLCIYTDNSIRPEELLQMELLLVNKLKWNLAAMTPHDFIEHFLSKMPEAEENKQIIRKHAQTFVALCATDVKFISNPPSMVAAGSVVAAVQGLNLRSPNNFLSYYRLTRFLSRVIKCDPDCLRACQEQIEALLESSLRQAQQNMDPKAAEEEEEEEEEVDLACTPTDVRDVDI
Nature of the experiment: CDK4 kinase activity after immunoprecipitation from MCF-7 cells. The settings on record: synchronized MCF-7; 1.5 μM; 3, 6, 9 and 12 h. In kind it is cell-based. The procedure: For immunoprecipitation assay, the MCF-7 cells were synchronized by serum starvation. These cells were treated with Compound A at 1.5 μM at various time points viz. 3 h, 6 h, 9 h and 12 h. Cells were harvested (trypsinised) and lysed using lysis buffer, and protein content was estimated. CDK4-D1 (Cyclin D1 and CDK4) was purified from the lysate by immunoprecipitation using specific antibody to CDK4. Immune complex was further purified using Protein A sepharose beads (Sigma Aldrich, USA). Immune complex was used to determine CDK4 activity using pRb as a substrate and ^32P labelled ATP (BRIT, India). Reaction mixed was applied to SDS-PAGE followed by transfer and autoradiography.

In experiment [2] the test system is all the breast cancer cell lines. Nature of the experiment: PI assay, summary over the breast cancer cell line panel. In kind it is cell-based. The settings on record: Homo sapiens; nine breast cancer cell lines of Table 1B; read-out: IC50 range over all the breast cancer cell lines. The procedure:
as §1

The next experiment deals with Bcl-2. Nature of the experiment: Western blot analysis in MCF-7 cells. In kind it is cell-based, human. The conditions noted are these: 1.5 and 4.5 μM, 6, 24 and 30 h. The procedure: The Western blot assay was carried out according to the procedure disclosed in Molecular Cancer Therapeutics, 2007, 6, 918-925 with some modifications.
MCF-7 and MDA-MB-231 cells were seeded in RPMI 1460 medium with 10% FCS in […] tissue culture flask and incubated for 24 h. The cells were treated with Compound A at 1.5 and 4.5 μM. At various time points, i.e. 6, 24 and 30 h the cells were harvested or trypsinized and lysed using lysis buffer (Sigma Aldrich, USA). Protein content was estimated. Lysate was applied to Sodium Dodecyl Sulphate-Polyacrylamide Gel Electrophoresis (SDS-PAGE) followed by western blotting (Molecular Cancer Therapeutics, 2007, 6, 918-925). Western blotting was done using specific antibodies to Bcl-2 and actin. The results are depicted in FIG. 4.

Where [3] appears, read: Homo sapiens, 48 h treatment, PI assay.

The term IC50 denotes the midpoint of a concentration-inhibition curve. As a reminder, the IC10 is the point of the concentration-response curve where the effect stands at 10%. A higher IC10 goes with a need for much substance. Usually IC30 stands for the point of the concentration-response curve where the effect stands at 30%. `CN1CC[C@@H](c2c(O)cc(O)c3c(=O)cc(-c4ccccc4Cl)oc23)[C@@H]1CO.Cl` [Compound A, (+)-trans-2-(2-Chloro-phenyl)-5,7-dihydroxy-8-(2-hydroxymethyl-1-methyl-pyrrolidin-3-yl)-chromen-4-one hydrochloride]: the “luciferase expression in control cell line” value in the experiment on U251 pGL3 is “did not inhibit the luciferase expression”. Besides, the IC50 with MDA-MB-231 (setting [3]) was 1000 nM; in the experiment on MCF-7 (Homo sapiens, MCF7, PI assay), 1000 nM; in the experiment on MDA-MB-468 (setting [3]), 1000 nM; in [2], 300 to 1000 nM. Moreover, the IC10 with MDA-MB-231 (determined as in Example 3) is 450 nM; with MCF-7 (determined as in Example 3) it was 370 nM; in the experiment with MDA-MB-468 (determined as in Example 3), 250 nM. For the same compound, the IC30 in the experiment on MDA-MB-231 (determined as in Example 3) came out at 750 nM; in the experiment on MCF-7 (determined as in Example 3), 750 nM; with MDA-MB-468 (determined as in Example 3) it was 500 nM. For the same compound, the “total Rb” value in the experiment with Rb is given as “no significant change in total Rb except at 24 h”. The “Cyclin D1 expression” value in the experiment with cyclin D1 is “decrease from 6 h onwards and significantly at 12 h”. In the experiment with pRbSer780, the pRb expression entry was “decrease from 6 h onwards and significantly at 12 h”. In [1], the CDK4 kinase activity result is “Decrease in CDK4 kinase activity in cell-based assay was seen as early as 3 h onwards”. Besides, in the experiment on Bcl-2, the “expression of antiapoptotic protein Bcl-2” value is “significantly down regulated from 24 h onwards”.

The values are drawn from patent US20130237582A1, “PHARMACEUTICAL COMBINATION OF PACLITAXEL AND A CDK INHIBITOR” (Piramal Enterprises Limited, priority 2010, published 2013).
